Experimental findings from patent US6685935B1 (priority 1995, dated 2004) are described below.

The subject of one data set is C57B6 mice. To be noted: mouse, in vivo, ip.
In data set [1] the test system is Cloudman S91 melanoma/macrophage hybrid #48 tumors in DBA/2J mice.
Another data set has as its system B16F10 melanoma cells. Type of data set: cell-based, mouse. The protocol:
FIG. 11-F is a graph showing the growth of B16F10 melanoma cells in monolayer culture in the presence or absence of ganciclovir at 10 μg/ml or 25 μg/ml.

The subject of data set [2] is B16F10 melanoma in C57B6 mice. The format is in vivo, mouse. The protocol: C57B6 mice were inoculated s.c., left shoulder region, with […] B16F10 melanoma cells from culture. […] At 18 days post-tumor implantation (10 days post bacterial inoculation) all animals were given enrofloxacin antibiotic, 0.2 mg/ml, in their drinking water (BAYTRIL™) and maintained with this antibiotic supplement for 2 weeks. Tumor growth was assessed by caliper measurements and computed as volume in mm^3. Animals were euthanized and listed as dead when the sum of their tumor measurements, length+width+height, reached 60 mm, or when they became moribund (listless, cessation of drinking).
C57B6 female mice, 5-7 weeks old, were inoculated s.c. in the left shoulder region with 5×10^5 B16F10 melanoma cells grown in culture. […] Tumor growth was assessed with periodic caliper measurements of tumor length, width and height, and computed as tumor volume in mm^3. Results of tumor growth, shown in FIGS. 16A-D represent the averages±SD for 5 animals/group with 5/5 animals surviving. After the point at which one or more animals died within a group, the average tumor sizes of the surviving animals were no longer shown when the data were plotted as shown in FIGS. 16A-D.
The animals were allowed to eat and drink ad libitum. Twenty-three days (Experiment #1) or 10 days (Experiment #2) following inoculation of bacteria, both control and bacteria treated mice were given Baytril™ (enrofloxacin, 0.2 mg/ml drinking water) and maintained on this antibiotic for a total of 2 weeks. In Experiment #1 the times at which the mice became moribund (listless, cessation of drinking) or died, were noted. The results are presented in Table 20(F) as the average survival±SD for the conditions tested. In Experiment #2 animals were sacrificed when the tumor reached 4 g and listed with the other dead as described in Experiment #1. The two different methods for assessing survival accounted for a somewhat shorter survival time for control animals in Experiment #2 (26 days) as compared to Experiment #1 (28 days).

SMILES strings stand for the structures. Like-named read-outs stand apart in the source and are kept apart here. Bounds are passed on as bounds.

With `CCN1CCN(c2cc3c(cc2F)c(=O)c(C(=O)O)cn3C2CC2)CC1` [enrofloxacin, 1-cyclopropyl-7-(4-ethyl-1-piperazinyl)-6-fluoro-1,4-dihydro-4-oxo-3-quinolinecarboxylic acid], the “Avg. time of Death ± S.D.” value in the data set on C57B6 mice is listed as above 21 days.
As to `Nc1nc(O)c2ncn(COC(CO)CO)c2n1` [ganciclovir, ganciclovir sodium], in data set [1] (2.5 mg i.p. four times over 3 days, no bacteria), the “side-effects of ganciclovir treatment” value is “little or no side-effects”. Further, in data set [1] (3×10^5 c.f.u. bacteria i.p., ganciclovir 2.0 mg, 6 inoculations over 5 days), the “Mean Tumor Doubling Time” value worked out at 94 h. For the same compound, the “proliferation of B16F10 melanoma cells in culture” value in the data set with B16F10 melanoma cells (GCV 10 μg/ml) is “not”. For the same compound, in the data set with B16F10 melanoma cells (GCV 25 μg/ml), the “proliferation of B16F10 melanoma cells in culture” value is reported as “significantly suppressed”. Besides, in data set [2] (GCV 3.75 mg, no bacteria), the “Time Days ± S.D.” value was found to be 27 ± 1 days and the “Treated/Control T/C” value came out at 1.1. In addition, in data set [2] (GCV 3.75 mg-10 mg/mouse days 11-12, no bacteria), the “effect on tumor volume” value was “small reduction in tumor volume”.
